Measured values: patent publication EP2891491A1, “Use of (r)-phenylpiracetam for the treatment of sleep disorders” (Merz Pharma GmbH & Co. KGaA, priority 2014, dated 2015)

Legend:
rats = experiment: electroencephalography (EEG) screen in freely moving rats; format: in vivo
Description: EXAMPLE 5: Testing of (R)-phenylpiracetam in an electroencephaloaraphy (EEG) screen - Fig. 4
(R)-Phenylpiracetam was tested at four different concentrations (1 mg/kg, 12.5 mg/kg, 25 mg/kg, and 50 mg/kg) in an EEG screen as described by Dimpfel (Dimpfel, Neuropsychobiology, 58 (2008)178-86).
Eight adult Fisher 344 rats (8 months of age, kept on inverse light-dark cycle, weight about 400 g, provided by Charles River Laboratories, D-97633, Sulzfeld) were used in this experimental series. Animals were implanted with electrodes into the brain and were given two weeks for recovery from surgery. After this the transmitter was plugged in for adaptation and control experiments.
The animals were allowed to acclimatize for at least 4 weeks before the study started. There was automatic control of light cycle, temperature and humidity. Light hours were 18 h in the evening - 6 h in the morning. […] Cages, bedding, and water bottles were changed at regular intervals, i.e. every 2-3 days. Standard diet (Nohrlin H10, Altromin, D-32791 Lage, Germany) was available to the animals ad libitum. The animals had access to domestic quality mains water ad libitum.
Rats were implanted with 4 bipolar concentric steel electrodes within a stereotactic surgical procedure during anaesthesia with ketamine. All four electrodes were placed 3 mm lateral within the left hemisphere. Dorsoventral coordinates were 4, 6, 4.2 and 8 mm and anterior coordinates were 3.7, 9.7, 5.7 and 12.2 mm for frontal cortex, striatum, hippocampus, and reticular formation, respectively (according to the atlas of Paxinos and Watson, 1982). A pre-constructed base plate carrying 4 bipolar stainless steel semi-micro electrodes (neurological electrodes "SNF 100" from Rhodes Medical Instruments, Inc., Summerland, CA 93067, USA) and a 5-pin-plug was fixed to the skull by dental cement interacting with 3 steel screws placed on distance into the bone. The distant recording spot of the electrode was the active electrode whereas the proximal spots of the four electrodes were connected to each other to give a reference. The base plate was carrying a plug to receive later on the transmitter (weight: 5.2 g including battery, 26 mm x 12 mm x 6 mm of size).
EEG signals were recorded from frontal cortex, hippocampus, striatum and reticular formation of freely moving rats from inside a totally copper shielded room. Signals were wirelessly transmitted by a radio-telemetric system (Rhema Labortechnik, Hofheim, Germany, using 40 MHz as carrier frequency) and were amplified and processed as described earlier to give power spectra of 0.25 Hz resolution (Dimpfel et al. 1986; Dimpfel et al. 1988; Dimpfel et al. 1989; Dimpfel, 2003). […]

[1] = tested on: subjects with Parkinson's Disease; experiment: clinical study of EDS in Parkinson patients, Epworth Sleepiness Scale; format: in vivo, humans; conditions: 50 mg bid for 4 weeks, oral, adjunct to L-Dopa
Description: In a prospective, randomized, double-blind, placebo-controlled, parallel group, multicenter study the tolerability, safety and efficacy of (R)-Phenylpiracetam after oral administration adjunct to L-Dopa treatment is confirmed. After a screening period of one week 36 subjects with Parkinson's Disease receive 50 mg (R)-Phenylpiracetam or placebo bid at 8.00 am and 3.00 pm for 4 weeks. A safety follow-up is performed 1 week after the double-blind treatment period. Visits take place 1 week before randomization (V1, day -7), at baseline (V2, day 1), at Week 2 (V3) and Week 4 (V4). A safety follow-up (V5) is performed 1 week after the last intake of study medication. An assessment of excessive daily sleepiness using the Epworth Sleepiness Scale [ESS] takes place at screening, baseline, week 2 and week 4.
The questionnaire asks the subject to rate his or her probability of falling asleep on a scale of increasing probability from 0 to 3 for 8 different situations that most people engage in during their daily lives, though not necessarily every day (Johns et al. J Neurol Neurosurg Psychiatry. 2005;76(12):1636). The scores for the 8 questions are added together to obtain a single number. […]
The absolute change of ESS from day 1 to day 14 and 28 is analyzed.

[2] = model for depression; cited from earlier work

**Q.** For NC(=O)CN1C[C@@H](c2ccccc2)CC1=O [(R)-phenylpiracetam], which “theta, delta, alpha1 and beta2 waves in the reticular formation” value (rats; EEG pattern compared with nootropics) is on record?
**A.** Its value is “no change”.

**Q.** And the “alpha2 and beta1 waves” value (rats; i.p., 1, 12.5, 25 and 50 mg/kg)?
**A.** The value was “dose dependent attenuation”.

**Q.** What about the “theta power within the frontal cortex” value (rats; i.p., highest dosage) of the same compound?
**A.** The value was “increases”.

**Q.** What about the Motility (rats; i.p., video tracking during EEG) of the same compound?
**A.** The Motility was “increased”.

**Q.** And the “improvement of ESS (absolute change from day 1 to day 14 and 28)” value [1]?
**A.** Its value is “at least 3 points”.

**Q.** And the “potency in the forced swim test” value [2]?
**A.** Its value is “only slightly more potent than (S)-phenylpiracetam”.
